Measured values as given in ChEMBL document CHEMBL5724914, “Linking interpersonal differences in gut microbiota composition and drug biotransformation activity” (2024).

conditions: human gut metagenome, 24 h, 2 µM
Further: call rule not given here.

Row | Compound | Bacterial Biotransformation
1 | COc1ccccc1OCCNCC(O)COc1cccc2[nH]c3ccccc3c12 (stereo unspecified) [CARVEDILOL] | Compound NOT metabolized
2 | CN1CCC[C@@H]1CCO[C@](C)(c1ccccc1)c1ccc(Cl)cc1.O=C(O)/C=C/C(=O)O [CLEMASTINE FUMARATE] | Compound NOT metabolized
3 | CC(C)(C)NCC(O)c1cc(Cl)c(N)c(Cl)c1 (stereo unspecified) [CLENBUTEROL] | Compound NOT metabolized
4 | C[N+]12CCC(CC1)C(OC(=O)C(O)(c1ccccc1)c1ccccc1)C2.[Br-] (stereo unspecified) [CLIDINIUM BROMIDE] | Compound NOT metabolized
5 | Clc1cccc(Cl)c1N=C1NCCN1 [CLONIDINE] | Compound NOT metabolized
6 | COC(=O)[C@H](c1ccccc1Cl)N1CCc2sccc2C1.O=S(=O)(O)O [CLOPIDOGREL BISULFATE] | Compound metabolized
7 | O=P1(N(CCCl)CCCl)NCCCO1 (stereo unspecified) [CYCLOPHOSPHAMIDE ANHYDROUS] | Compound NOT metabolized
8 | Br.COc1ccc2c(c1)[C@]13CCCC[C@@H]1[C@H](C2)N(C)CC3.O [DEXTROMETHORPHAN HYDROBROMIDE] | Compound NOT metabolized
9 | CCN(CC)CCOC(=O)C1(C2CCCCC2)CCCCC1 [DICYCLOMINE] | Compound NOT metabolized

conditions: human gut metagenome, 24 h, 2 µM; remark: another data set of the same source

Row | Compound | Bacterial Biotransformation
10 | COc1ccccc1OCCNCC(O)COc1cccc2[nH]c3ccccc3c12 (stereo unspecified) [CARVEDILOL] | Compound metabolized
11 | CN1CCC[C@@H]1CCO[C@](C)(c1ccccc1)c1ccc(Cl)cc1.O=C(O)/C=C/C(=O)O [CLEMASTINE FUMARATE] | Compound metabolized
12 | CC(C)(C)NCC(O)c1cc(Cl)c(N)c(Cl)c1 (stereo unspecified) [CLENBUTEROL] | Compound NOT metabolized
13 | C[N+]12CCC(CC1)C(OC(=O)C(O)(c1ccccc1)c1ccccc1)C2.[Br-] (stereo unspecified) [CLIDINIUM BROMIDE] | Compound NOT metabolized
14 | Clc1cccc(Cl)c1N=C1NCCN1 [CLONIDINE] | Compound metabolized
15 | COC(=O)[C@H](c1ccccc1Cl)N1CCc2sccc2C1.O=S(=O)(O)O [CLOPIDOGREL BISULFATE] | Compound metabolized
16 | O=P1(N(CCCl)CCCl)NCCCO1 (stereo unspecified) [CYCLOPHOSPHAMIDE ANHYDROUS] | Compound metabolized
17 | Br.COc1ccc2c(c1)[C@]13CCCC[C@@H]1[C@H](C2)N(C)CC3.O [DEXTROMETHORPHAN HYDROBROMIDE] | Compound metabolized
18 | CCN(CC)CCOC(=O)C1(C2CCCCC2)CCCCC1 [DICYCLOMINE] | Compound metabolized

conditions: human gut metagenome, 24 h, 2 µM; remark: another data set of the same source

Row | Compound | Bacterial Biotransformation
19 | COc1ccccc1OCCNCC(O)COc1cccc2[nH]c3ccccc3c12 (stereo unspecified) [CARVEDILOL] | Compound NOT metabolized
20 | CN1CCC[C@@H]1CCO[C@](C)(c1ccccc1)c1ccc(Cl)cc1.O=C(O)/C=C/C(=O)O [CLEMASTINE FUMARATE] | Compound metabolized
21 | CC(C)(C)NCC(O)c1cc(Cl)c(N)c(Cl)c1 (stereo unspecified) [CLENBUTEROL] | Compound NOT metabolized
22 | C[N+]12CCC(CC1)C(OC(=O)C(O)(c1ccccc1)c1ccccc1)C2.[Br-] (stereo unspecified) [CLIDINIUM BROMIDE] | Compound NOT metabolized
23 | Clc1cccc(Cl)c1N=C1NCCN1 [CLONIDINE] | Compound NOT metabolized
24 | COC(=O)[C@H](c1ccccc1Cl)N1CCc2sccc2C1.O=S(=O)(O)O [CLOPIDOGREL BISULFATE] | Compound metabolized
25 | O=P1(N(CCCl)CCCl)NCCCO1 (stereo unspecified) [CYCLOPHOSPHAMIDE ANHYDROUS] | Compound NOT metabolized
26 | Br.COc1ccc2c(c1)[C@]13CCCC[C@@H]1[C@H](C2)N(C)CC3.O [DEXTROMETHORPHAN HYDROBROMIDE] | Compound NOT metabolized
27 | CCN(CC)CCOC(=O)C1(C2CCCCC2)CCCCC1 [DICYCLOMINE] | Compound metabolized

assay: (§1) The drug is tested on WLS-006 corresponding to human gut metagenome with ENA study accession number: PRJEB37062 and ENA sample accession number: ERS12561741 for biotransformation under anaerobic condition. The drug concentrations were measured over 9 timepoints collected between 0 and 24 hours of incubation by liquid-chromatography-coupled mass spectrometry (LC–MS); conditions: 2 µM

Row | Compound | Bacterial Biotransformation
28 | COc1ccccc1OCCNCC(O)COc1cccc2[nH]c3ccccc3c12 (stereo unspecified) [CARVEDILOL] | Compound metabolized
29 | CN1CCC[C@@H]1CCO[C@](C)(c1ccccc1)c1ccc(Cl)cc1.O=C(O)/C=C/C(=O)O [CLEMASTINE FUMARATE] | Compound NOT metabolized
30 | CC(C)(C)NCC(O)c1cc(Cl)c(N)c(Cl)c1 (stereo unspecified) [CLENBUTEROL] | Compound NOT metabolized
31 | C[N+]12CCC(CC1)C(OC(=O)C(O)(c1ccccc1)c1ccccc1)C2.[Br-] (stereo unspecified) [CLIDINIUM BROMIDE] | Compound NOT metabolized
32 | Clc1cccc(Cl)c1N=C1NCCN1 [CLONIDINE] | Compound metabolized
33 | COC(=O)[C@H](c1ccccc1Cl)N1CCc2sccc2C1.O=S(=O)(O)O [CLOPIDOGREL BISULFATE] | Compound metabolized
34 | O=P1(N(CCCl)CCCl)NCCCO1 (stereo unspecified) [CYCLOPHOSPHAMIDE ANHYDROUS] | Compound NOT metabolized
35 | Br.COc1ccc2c(c1)[C@]13CCCC[C@@H]1[C@H](C2)N(C)CC3.O [DEXTROMETHORPHAN HYDROBROMIDE] | Compound metabolized
36 | CCN(CC)CCOC(=O)C1(C2CCCCC2)CCCCC1 [DICYCLOMINE] | Compound metabolized

assay: as §1, with “WLS-370” for “WLS-006”, “ERS12561793” for “ERS12561741”; conditions: 2 µM

Row | Compound | Bacterial Biotransformation
37 | COc1ccccc1OCCNCC(O)COc1cccc2[nH]c3ccccc3c12 (stereo unspecified) [CARVEDILOL] | Compound NOT metabolized
38 | CN1CCC[C@@H]1CCO[C@](C)(c1ccccc1)c1ccc(Cl)cc1.O=C(O)/C=C/C(=O)O [CLEMASTINE FUMARATE] | Compound metabolized
39 | CC(C)(C)NCC(O)c1cc(Cl)c(N)c(Cl)c1 (stereo unspecified) [CLENBUTEROL] | Compound NOT metabolized
40 | C[N+]12CCC(CC1)C(OC(=O)C(O)(c1ccccc1)c1ccccc1)C2.[Br-] (stereo unspecified) [CLIDINIUM BROMIDE] | Compound metabolized
41 | Clc1cccc(Cl)c1N=C1NCCN1 [CLONIDINE] | Compound NOT metabolized
42 | COC(=O)[C@H](c1ccccc1Cl)N1CCc2sccc2C1.O=S(=O)(O)O [CLOPIDOGREL BISULFATE] | Compound metabolized
43 | O=P1(N(CCCl)CCCl)NCCCO1 (stereo unspecified) [CYCLOPHOSPHAMIDE ANHYDROUS] | Compound NOT metabolized
44 | Br.COc1ccc2c(c1)[C@]13CCCC[C@@H]1[C@H](C2)N(C)CC3.O [DEXTROMETHORPHAN HYDROBROMIDE] | Compound metabolized
45 | CCN(CC)CCOC(=O)C1(C2CCCCC2)CCCCC1 [DICYCLOMINE] | Compound NOT metabolized

conditions: human gut metagenome, 24 h, 2 µM; remark: another data set of the same source

Row | Compound | Bacterial Biotransformation
46 | COc1ccccc1OCCNCC(O)COc1cccc2[nH]c3ccccc3c12 (stereo unspecified) [CARVEDILOL] | Compound NOT metabolized
47 | CN1CCC[C@@H]1CCO[C@](C)(c1ccccc1)c1ccc(Cl)cc1.O=C(O)/C=C/C(=O)O [CLEMASTINE FUMARATE] | Compound NOT metabolized
48 | CC(C)(C)NCC(O)c1cc(Cl)c(N)c(Cl)c1 (stereo unspecified) [CLENBUTEROL] | Compound NOT metabolized
49 | C[N+]12CCC(CC1)C(OC(=O)C(O)(c1ccccc1)c1ccccc1)C2.[Br-] (stereo unspecified) [CLIDINIUM BROMIDE] | Compound NOT metabolized
50 | Clc1cccc(Cl)c1N=C1NCCN1 [CLONIDINE] | Compound NOT metabolized
51 | COC(=O)[C@H](c1ccccc1Cl)N1CCc2sccc2C1.O=S(=O)(O)O [CLOPIDOGREL BISULFATE] | Compound metabolized
52 | O=P1(N(CCCl)CCCl)NCCCO1 (stereo unspecified) [CYCLOPHOSPHAMIDE ANHYDROUS] | Compound NOT metabolized
53 | Br.COc1ccc2c(c1)[C@]13CCCC[C@@H]1[C@H](C2)N(C)CC3.O [DEXTROMETHORPHAN HYDROBROMIDE] | Compound NOT metabolized
54 | CCN(CC)CCOC(=O)C1(C2CCCCC2)CCCCC1 [DICYCLOMINE] | Compound NOT metabolized

assay: as §1, with “Z-028” for “WLS-006”, “mouse” for “human”, “ERS12561827” for “ERS12561741”; conditions: 2 µM

Row | Compound | Bacterial Biotransformation
55 | COc1ccccc1OCCNCC(O)COc1cccc2[nH]c3ccccc3c12 (stereo unspecified) [CARVEDILOL] | Compound NOT metabolized
56 | CN1CCC[C@@H]1CCO[C@](C)(c1ccccc1)c1ccc(Cl)cc1.O=C(O)/C=C/C(=O)O [CLEMASTINE FUMARATE] | Compound NOT metabolized
57 | CC(C)(C)NCC(O)c1cc(Cl)c(N)c(Cl)c1 (stereo unspecified) [CLENBUTEROL] | Compound NOT metabolized
58 | C[N+]12CCC(CC1)C(OC(=O)C(O)(c1ccccc1)c1ccccc1)C2.[Br-] (stereo unspecified) [CLIDINIUM BROMIDE] | Compound NOT metabolized
59 | Clc1cccc(Cl)c1N=C1NCCN1 [CLONIDINE] | Compound NOT metabolized
60 | COC(=O)[C@H](c1ccccc1Cl)N1CCc2sccc2C1.O=S(=O)(O)O [CLOPIDOGREL BISULFATE] | Compound NOT metabolized
61 | O=P1(N(CCCl)CCCl)NCCCO1 (stereo unspecified) [CYCLOPHOSPHAMIDE ANHYDROUS] | Compound NOT metabolized
62 | Br.COc1ccc2c(c1)[C@]13CCCC[C@@H]1[C@H](C2)N(C)CC3.O [DEXTROMETHORPHAN HYDROBROMIDE] | Compound NOT metabolized
63 | CCN(CC)CCOC(=O)C1(C2CCCCC2)CCCCC1 [DICYCLOMINE] | Compound NOT metabolized

conditions: human gut metagenome, 24 h, 2 µM; remark: another data set of the same source

Row | Compound | Bacterial Biotransformation
64 | COc1ccccc1OCCNCC(O)COc1cccc2[nH]c3ccccc3c12 (stereo unspecified) [CARVEDILOL] | Compound metabolized
65 | CN1CCC[C@@H]1CCO[C@](C)(c1ccccc1)c1ccc(Cl)cc1.O=C(O)/C=C/C(=O)O [CLEMASTINE FUMARATE] | Compound metabolized
66 | CC(C)(C)NCC(O)c1cc(Cl)c(N)c(Cl)c1 (stereo unspecified) [CLENBUTEROL] | Compound NOT metabolized
67 | C[N+]12CCC(CC1)C(OC(=O)C(O)(c1ccccc1)c1ccccc1)C2.[Br-] (stereo unspecified) [CLIDINIUM BROMIDE] | Compound NOT metabolized
68 | Clc1cccc(Cl)c1N=C1NCCN1 [CLONIDINE] | Compound NOT metabolized
69 | COC(=O)[C@H](c1ccccc1Cl)N1CCc2sccc2C1.O=S(=O)(O)O [CLOPIDOGREL BISULFATE] | Compound metabolized
70 | O=P1(N(CCCl)CCCl)NCCCO1 (stereo unspecified) [CYCLOPHOSPHAMIDE ANHYDROUS] | Compound metabolized
71 | Br.COc1ccc2c(c1)[C@]13CCCC[C@@H]1[C@H](C2)N(C)CC3.O [DEXTROMETHORPHAN HYDROBROMIDE] | Compound metabolized
72 | CCN(CC)CCOC(=O)C1(C2CCCCC2)CCCCC1 [DICYCLOMINE] | Compound metabolized

conditions: human gut metagenome, 24 h, 2 µM; remark: another data set of the same source

Row | Compound | Bacterial Biotransformation
73 | COc1ccccc1OCCNCC(O)COc1cccc2[nH]c3ccccc3c12 (stereo unspecified) [CARVEDILOL] | Compound NOT metabolized
74 | CN1CCC[C@@H]1CCO[C@](C)(c1ccccc1)c1ccc(Cl)cc1.O=C(O)/C=C/C(=O)O [CLEMASTINE FUMARATE] | Compound metabolized
75 | CC(C)(C)NCC(O)c1cc(Cl)c(N)c(Cl)c1 (stereo unspecified) [CLENBUTEROL] | Compound NOT metabolized
76 | C[N+]12CCC(CC1)C(OC(=O)C(O)(c1ccccc1)c1ccccc1)C2.[Br-] (stereo unspecified) [CLIDINIUM BROMIDE] | Compound NOT metabolized
77 | Clc1cccc(Cl)c1N=C1NCCN1 [CLONIDINE] | Compound NOT metabolized
78 | COC(=O)[C@H](c1ccccc1Cl)N1CCc2sccc2C1.O=S(=O)(O)O [CLOPIDOGREL BISULFATE] | Compound metabolized
79 | O=P1(N(CCCl)CCCl)NCCCO1 (stereo unspecified) [CYCLOPHOSPHAMIDE ANHYDROUS] | Compound NOT metabolized
80 | Br.COc1ccc2c(c1)[C@]13CCCC[C@@H]1[C@H](C2)N(C)CC3.O [DEXTROMETHORPHAN HYDROBROMIDE] | Compound NOT metabolized
81 | CCN(CC)CCOC(=O)C1(C2CCCCC2)CCCCC1 [DICYCLOMINE] | Compound NOT metabolized
